Earlier results in US20170247690A1, “ONCOVIRAL TREATMENT WITH NUCLEASE AND CHEMOTHERAPEUTIC” (priority 2016, published 2017).

Columns and labels:
proteasome T-L activity = conditions: animal model studies
20S proteasomes = 20S proteasomes (Homo sapiens, UniProt Q99436); conditions: purified 20S proteasomes

SMILES: C[C@@]12OC(=O)[C@]1([C@@H](O)[C@@H]1C=CCCC1)NC(=O)[C@@H]2CCCl [salinosporamide A, Salinosporamide A]
- T-L proteasome activity in vivo (proteasome T-L activity): marked inhibition of T-L activity
- EC50 for trypsin-like (T-L) activity, comparison (20S proteasomes): lower EC50 for trypsin-like (T-L) activity than does bortezomib

SMILES: CC(C)C[C@H](NC(=O)[C@H](Cc1ccccc1)NC(=O)c1cnccn1)B(O)O [bortezomib]
- T-L proteasome activity in vivo (proteasome T-L activity): enhances T-L proteasome activity
